These compounds were tested on Hepatotoxicity (assay: Literature-mined public compounds from Greene et al multi-species hepatotoxicity modelling dataset).

Row | Compound | Hepatotoxicity
1 | CN(C)C(=N)N=C(N)N [METFORMIN] | WE: Weak evidence (<10 case reports) of human hepatotoxicity
2 | COc1cc(N)c(Cl)cc1C(=O)NC1CCN(CCCOc2ccc(F)cc2)CC1OC (configuration not stated) [CISAPRIDE] | NE: No evidence of hepatotoxicity in any species
3 | C[C@]12C=CC(=O)C=C1CC[C@@H]1[C@@H]2C(=O)C[C@@]2(C)[C@H]1CC[C@]2(O)C(=O)CO [PREDNISONE] | WE: Weak evidence (<10 case reports) of human hepatotoxicity
4 | CC12CC3CC(C)(C1)CC(N)(C3)C2 [MEMANTINE] | NE: No evidence of hepatotoxicity in any species
5 | NCCCCCC(=O)O [AMINOCAPROIC ACID] | NE: No evidence of hepatotoxicity in any species
6 | LACTOSE, ANHYDROUS | NE: No evidence of hepatotoxicity in any species
7 | CC(C)COCC(CN(Cc1ccccc1)c1ccccc1)N1CCCC1.Cl.O (configuration not stated) [BEPRIDIL HYDROCHLORIDE] | HH: Evidence of human hepatotoxicity
8 | CADMIUM DICHLORIDE | AH: Evidence for animal hepatotoxicity but not tested in humans
9 | NC[C@@H]1O[C@H](O[C@H]2[C@@H](O)[C@H](O[C@@H]3[C@@H](O)[C@H](N)C[C@H](N)[C@H]3O[C@H]3O[C@H](CO)[C@@H](O)[C@H](O)[C@H]3N)O[C@@H]2CO)[C@H](N)[C@@H](O)[C@@H]1O.O=S(=O)(O)O [PAROMOMYCIN SULFATE] | NE: No evidence of hepatotoxicity in any species
10 | Cc1onc(-c2c(Cl)cccc2Cl)c1C(=O)N[C@@H]1C(=O)N2[C@@H]1SC(C)(C)[C@@H]2C(=O)[O-].O.[Na+] [DICLOXACILLIN SODIUM] | HH: Evidence of human hepatotoxicity
11 | Clc1cc2c(cc1Cl)Oc1cc(Cl)c(Cl)cc1O2 [2,3,7,8-TETRACHLORODIBENZO-P-DIOXIN] | AH: Evidence for animal hepatotoxicity but not tested in humans
12 | O=C(O)/C=C\C(=O)O [MALEIC ACID] | AH: Evidence for animal hepatotoxicity but not tested in humans
13 | CC1(c2ccccc2)Cc2cc(OCC(=O)O)c(Cl)c(Cl)c2C1=O (configuration not stated) [INDACRINONE] | HH: Evidence of human hepatotoxicity
14 | CCO.C[C@H]1c2cccc(O)c2C(=O)C2=C(O)[C@]3(O)C(=O)C(C(N)=O)=C(O)[C@@H](N(C)C)[C@@H]3[C@@H](O)[C@@H]21.Cl.O | HH: Evidence of human hepatotoxicity
15 | CN(C)c1ccc(O)c2c1C[C@H]1C[C@H]3[C@H](N(C)C)C(O)=C(C(N)=O)C(=O)[C@@]3(O)C(O)=C1C2=O.Cl [MINOCYCLINE HYDROCHLORIDE] | HH: Evidence of human hepatotoxicity
16 | CC(C(=O)O)c1cccc(C(=O)c2ccccc2)c1 (configuration not stated) [KETOPROFEN] | NE: No evidence of hepatotoxicity in any species
17 | O=C1NCN(c2ccccc2)C12CCN(CCCC(c1ccc(F)cc1)c1ccc(F)cc1)CC2 | HH: Evidence of human hepatotoxicity
18 | Cc1cn([C@H]2C=C[C@@H](CO)O2)c(=O)[nH]c1=O [STAVUDINE] | HH: Evidence of human hepatotoxicity
19 | OCCO [ETHYLENE GLYCOL] | AH: Evidence for animal hepatotoxicity but not tested in humans
20 | CC(C)(Sc1cc(C(C)(C)C)c(O)c(C(C)(C)C)c1)Sc1cc(C(C)(C)C)c(O)c(C(C)(C)C)c1 [PROBUCOL] | NE: No evidence of hepatotoxicity in any species
21 | CCOc1ccc(NC(C)=O)cc1 [PHENACETIN] | HH: Evidence of human hepatotoxicity

Row | Compound | Hepatotoxicity
22 | CN(N=O)C(=O)N[C@@H](C=O)[C@@H](O)[C@H](O)[C@H](O)CO [STREPTOZOCIN] | NE: No evidence of hepatotoxicity in any species
23 | Cc1ccc(S(=O)(=O)NC(=O)NN2CCCCCC2)cc1 [TOLAZAMIDE] | HH: Evidence of human hepatotoxicity
24 | C[N+](C)(C)CCOP(=O)(O)OP(=O)([O-])OC[C@H]1O[C@@H](n2ccc(N)nc2=O)[C@H](O)[C@@H]1O [CITICOLINE] | NE: No evidence of hepatotoxicity in any species
25 | N[C@@H](Cc1ccc(O)c(O)c1)C(=O)O [LEVODOPA] | NE: No evidence of hepatotoxicity in any species
26 | Cc1cccc(Nc2ccccc2C(=O)O)c1C [MEFENAMIC ACID] | HH: Evidence of human hepatotoxicity
27 | CCCCN1CCCCC1C(=O)Nc1c(C)cccc1C (configuration not stated) [BUPIVACAINE] | NE: No evidence of hepatotoxicity in any species
28 | Cc1c(C)c2c(c(C)c1O)CCC(C)(COc1ccc(CC3SC(=O)NC3=O)cc1)O2 (configuration not stated) [TROGLITAZONE] | HH: Evidence of human hepatotoxicity
29 | ClC(Cl)Cl [CHLOROFORM] | AH: Evidence for animal hepatotoxicity but not tested in humans
30 | CCN1CCN(C(=O)N[C@@H](C(=O)N[C@@H]2C(=O)N3C(C(=O)O)=C(CSc4nnnn4C)CS[C@H]23)c2ccc(O)cc2)C(=O)C1=O.O.O [CEFOPERAZONE DIHYDRATE] | NE: No evidence of hepatotoxicity in any species
31 | CN(C)CCCC1(c2ccc(F)cc2)OCc2cc(C#N)ccc21 (configuration not stated) [CITALOPRAM] | WE: Weak evidence (<10 case reports) of human hepatotoxicity
32 | NC(CS/C(Cl)=C/Cl)C(=O)O (configuration not stated) | AH: Evidence for animal hepatotoxicity but not tested in humans
33 | CC1(C)S[C@@H]2[C@H](NC(=O)[C@H](N)c3ccc(O)cc3)C(=O)N2[C@H]1C(=O)O [AMOXICILLIN] | WE: Weak evidence (<10 case reports) of human hepatotoxicity
34 | COc1ccc(OC)c(C(O)C(C)N)c1.Cl (configuration not stated) [METHOXAMINE HYDROCHLORIDE] | NE: No evidence of hepatotoxicity in any species
35 | Cl.O=c1n(CCCN2CCN(c3cccc(Cl)c3)CC2)nc2ccccn12 [TRAZODONE HYDROCHLORIDE] | HH: Evidence of human hepatotoxicity
36 | C[C@H]1C(=O)O[C@@H]2CCN3CC=C(COC(=O)[C@](C)(O)[C@]1(C)O)[C@H]23 [MONOCROTALINE] | AH: Evidence for animal hepatotoxicity but not tested in humans
37 | COCC(=O)O[C@]1(CCN(C)CCCc2nc3ccccc3[nH]2)CCc2cc(F)ccc2[C@@H]1C(C)C [MIBEFRADIL] | NE: No evidence of hepatotoxicity in any species
38 | GALLIUM NITRATE HYDRATE | NE: No evidence of hepatotoxicity in any species
39 | C[C@H](O)C(=O)Nc1c(I)c(C(=O)NC(CO)CO)c(I)c(C(=O)NC(CO)CO)c1I [IOPAMIDOL] | HH: Evidence of human hepatotoxicity
40 | NNCCc1ccccc1 [PHENELZINE] | NE: No evidence of hepatotoxicity in any species
41 | NC(=O)N1c2ccccc2C=Cc2ccccc21 [CARBAMAZEPINE] | HH: Evidence of human hepatotoxicity
42 | CS(=O)(=O)OCCCCOS(C)(=O)=O [BUSULFAN] | HH: Evidence of human hepatotoxicity

Row | Compound | Hepatotoxicity
43 | N[C@H]1C(O)O[C@H](CO)[C@@H](O)[C@@H]1O (some centres not stated) [GLUCOSAMINE] | AH: Evidence for animal hepatotoxicity but not tested in humans
44 | CCc1ccc(CCOc2ccc(CC3SC(=O)NC3=O)cc2)nc1 (configuration not stated) [PIOGLITAZONE] | WE: Weak evidence (<10 case reports) of human hepatotoxicity
45 | Clc1ccc(CSC(Cn2ccnc2)c2ccc(Cl)cc2Cl)cc1.O=[N+]([O-])O (configuration not stated) [SULCONAZOLE NITRATE] | NE: No evidence of hepatotoxicity in any species
46 | C[C@]12CC[C@@H]3c4ccc(O)cc4CC[C@H]3[C@@H]1CC[C@@H]2O[C@@H]1O[C@H](C(=O)O)[C@@H](O)[C@H](O)[C@H]1O [ESTRADIOL 17B GLUCURONIDE] | HH: Evidence of human hepatotoxicity
47 | Nc1ccc(C(=O)[O-])cc1.[K+] [AMINOBENZOATE POTASSIUM] | NE: No evidence of hepatotoxicity in any species
48 | Cc1nc(C)c2c(n1)N(Cc1ccc(-c3ccccc3-c3nnn[nH]3)cc1)C(=O)CC2 [TASOSARTAN] | HH: Evidence of human hepatotoxicity
49 | Cc1ccc(S(=O)(=O)NC(=O)NN2CC3CCCC3C2)cc1 (configuration not stated) [GLICLAZIDE] | WE: Weak evidence (<10 case reports) of human hepatotoxicity
50 | Cl.N=C(N)NC(=O)c1nc(Cl)c(N)nc1N.O.O [AMILORIDE HYDROCHLORIDE] | NE: No evidence of hepatotoxicity in any species
51 | CC(=O)Nc1ccc(O)cc1 [ACETAMINOPHEN] | HH: Evidence of human hepatotoxicity
52 | CCCN(CCC)S(=O)(=O)c1ccc(C(=O)O)cc1 [PROBENECID] | WE: Weak evidence (<10 case reports) of human hepatotoxicity
53 | CNCCc1ccccn1.Cl.Cl [BETAHISTINE HYDROCHLORIDE] | HH: Evidence of human hepatotoxicity
54 | C[C@@H]1C[C@H]2[C@@H]3CCC4=CC(=O)C=C[C@]4(C)[C@@]3(Cl)[C@@H](O)C[C@]2(C)[C@@]1(OC(=O)c1ccco1)C(=O)CCl [MOMETASONE FUROATE] | NE: No evidence of hepatotoxicity in any species
55 | Cc1cc(C(=O)NNCc2ccccc2)no1 [ISOCARBOXAZID] | WE: Weak evidence (<10 case reports) of human hepatotoxicity
56 | CC[C@]1(O)C[C@@H]2CN(CCc3c([nH]c4ccccc34)[C@@](C(=O)OC)(c3cc4c(cc3OC)N(C)[C@H]3[C@@](O)(C(=O)OC)[C@H](OC(C)=O)[C@]5(CC)C=CCN6CC[C@]43[C@@H]65)C2)C1.O=S(=O)(O)O [VINBLASTINE SULFATE] | NE: No evidence of hepatotoxicity in any species
57 | C#CCN(C)Cc1ccccc1 [PARGYLINE] | NE: No evidence of hepatotoxicity in any species
58 | CN(C)[C@@H]1C(O)=C(C(N)=O)C(=O)[C@@]2(O)C(O)=C3C(=O)c4c(O)ccc(Cl)c4[C@@H](O)[C@H]3C[C@@H]12.Cl [DEMECLOCYCLINE HYDROCHLORIDE] | HH: Evidence of human hepatotoxicity
59 | CCOC(=O)Nc1ccc2c(c1)N(C(=O)CCN1CCOCC1)c1ccccc1S2.Cl [MORICIZINE HYDROCHLORIDE] | HH: Evidence of human hepatotoxicity
60 | CN(C)C(=O)C(CCN1CCC(O)(c2ccc(Cl)cc2)CC1)(c1ccccc1)c1ccccc1.Cl [LOPERAMIDE HYDROCHLORIDE] | NE: No evidence of hepatotoxicity in any species
61 | CC[C@@H](CO)NC(=O)[C@@H]1C=C2c3cccc4c3c(cn4C)C[C@H]2N(C)C1.O=C(O)/C=C\C(=O)O [METHYSERGIDE MALEATE] | NE: No evidence of hepatotoxicity in any species
62 | CC(=O)OCC(=O)[C@@]1(O)CC[C@H]2[C@@H]3CCC4=CC(=O)CC[C@]4(C)[C@@]3(F)[C@@H](O)C[C@@]21C [FLUDROCORTISONE ACETATE] | NE: No evidence of hepatotoxicity in any species
